# Assay results: patent publication US20060122282A1, “METHOD FOR TREATING SKIN DISORDERS WITH XANTHOPHYLLS” (priority 2004, published 2006)
# Assay: blister healing of the skin (blisters raised, roofs cut off)
# Format: in vivo, human
# Settings: topical application before raising the blister; alone or in combination with xanthophylls
# Source text: Experiments have been performed wherein blisters have been raised and the roofs cut off of the skins of individuals of various ages.
structure (smiles),measurement,value
"CC1=C(/C=C/C(C)=C/C=C/C(C)=C/C(=O)O)C(C)(C)CCC1 [tretinoin, all-trans retinoic acid]",healing time of blisters,halves
